Assay results taken from PMC6747318, “Mutual Enhancement of Opioid and Adrenergic Receptors by Combinations of Opioids and Adrenergic Ligands Is Reflected in Molecular Complementarity of Ligands: Drug Development Possibilities” (International Journal of Molecular Sciences, 2019).
Counter-ions that a name gives are not always drawn.

Biological target: not listed separately
Test: UV spectroscopy binding between compounds: binding to ascorbic acid
Details: read-out: Kd @ 200 nm, binding to Asc, pH 7.4 sodium phosphate buffer
Compound `NC[C@H](O)c1ccc(O)c(O)c1` [Norepinephrine HCl] has a Kd of 110 µM.
Compound `COc1ccc2[nH]cc(CCNC(C)=O)c2c1` [Melatonin] has a Kd of 400 µM.
For `COc1cc(CC(=O)O)ccc1O` [Homovanillic Acid], the Kd was > 1000 µM.
Compound `NCCc1ccc(O)c(O)c1` [Dopamine] has a Kd of 100 µM.
For `N[C@@H](Cc1ccc(O)cc1)C(=O)O` [Tyrosine], the Kd was 270 µM.
In the case of `CC(C)NCC(O)c1ccc(O)c(O)c1` (stereo not shown) [Isoproterenol], the Kd is reported as 130 µM.
`NCC(O)c1ccc(O)cc1` (stereo not shown) [Octopamine] gave a Kd of 220 µM.

Biological target: not listed separately
Test: UV spectroscopy binding between compounds: binding to propranolol
Details: read-out: Kd @ 200 nm, binding to Prop; UV spectroscopy, pH 7.4 sodium phosphate buffer; single binding constant
With `NC[C@H](O)c1ccc(O)c(O)c1` [Norepinephrine HCl] the Kd was > 1000 µM.
`COc1ccc2[nH]cc(CCNC(C)=O)c2c1` [Melatonin] showed a Kd of 90 µM.
Work on `NCCc1ccc(O)c(O)c1` [Dopamine] yielded a Kd of 100 µM.
In the case of `N[C@@H](Cc1ccc(O)cc1)C(=O)O` [Tyrosine], the Kd is reported as 20 µM.
`CC(C)NCC(O)c1ccc(O)c(O)c1` (stereo not shown) [Isoproterenol] gave a Kd of 11 µM.

Biological target: mu opioid receptor (muOPR) peptide 38–51 (Homo sapiens, UniProt P35372)
Test: biochemical
Details: not given
Work on `CC(C)NCC(O)c1ccc(O)c(O)c1` (stereo not shown) [Isoproterenol] yielded a Kd of ~1300 nM.

Biological target: methionine-enkephalin (Homo sapiens, UniProt P01210)
Test: UV spectroscopy binding between compounds: binding to methionine-enkephalin
Set-up: M-Enk = methionine-enkephalin; purchased Sigma-Aldrich
Details: Kd @ 200 nm, binding to M-Enk, UV spectroscopy, pH 7.4 sodium phosphate buffer; single binding constant
`COc1ccc2[nH]cc(CCNC(C)=O)c2c1` [Melatonin] gave a Kd of 130 µM.
`COc1cc(CC(=O)O)ccc1O` [Homovanillic Acid] showed a Kd of 80 µM.
`NCCc1ccc(O)c(O)c1` [Dopamine] showed a Kd of 30 µM.
`CC(C)NCC(O)c1ccc(O)c(O)c1` (stereo not shown) [Isoproterenol] showed a Kd of 40 µM.
`NCC(O)c1ccc(O)cc1` (stereo not shown) [Octopamine] gave a Kd of 80 µM.

Same assay, conditions: Kd @ 200 nm, binding to M-Enk, high affinity binding, double curve, first value
Work on `NC[C@H](O)c1ccc(O)c(O)c1` [Norepinephrine HCl] yielded a Kd of 5.3 µM.

Same assay, conditions: UV spectroscopy, pH 7.4 sodium phosphate buffer; single binding constant; read-out: Kd @ 200 nm, binding to M-Enk
For `N[C@@H](Cc1ccc(O)cc1)C(=O)O` [Tyrosine], the Kd was > 1000 µM.

Same assay, conditions: read-out: Kd @ 200 nm, binding to M-Enk, low affinity binding; double curve, second value
`NC[C@H](O)c1ccc(O)c(O)c1` [Norepinephrine HCl] gave a Kd of 35 µM.

Biological target: not listed separately
Test: UV spectroscopy binding between compounds: binding to naloxone
Details: pH 7.4 sodium phosphate buffer, read-out: Kd @ 200 nm, binding to NAL
Work on `NC[C@H](O)c1ccc(O)c(O)c1` [Norepinephrine HCl] yielded a Kd of 80 µM.
`COc1ccc2[nH]cc(CCNC(C)=O)c2c1` [Melatonin] gave a Kd of 12 µM.
Work on `COc1cc(CC(=O)O)ccc1O` [Homovanillic Acid] yielded a Kd of 85 µM.
In the case of `NCCc1ccc(O)c(O)c1` [Dopamine], the Kd is reported as 90 µM.
`N[C@@H](Cc1ccc(O)cc1)C(=O)O` [Tyrosine] showed a Kd of 75 µM.
With `CC(C)NCC(O)c1ccc(O)c(O)c1` (stereo not shown) [Isoproterenol] the Kd was 13 µM.
`NCC(O)c1ccc(O)cc1` (stereo not shown) [Octopamine] gave a Kd of 55 µM.

Biological target: not listed separately
Test: UV spectroscopy binding between compounds: binding to methadone
Details: pH 7.4 sodium phosphate buffer, read-out: Kd @ 200 nm, binding to Meth
`NC[C@H](O)c1ccc(O)c(O)c1` [Norepinephrine HCl] gave a Kd of 70 µM.
`COc1ccc2[nH]cc(CCNC(C)=O)c2c1` [Melatonin] gave a Kd of 300 µM.
For `COc1cc(CC(=O)O)ccc1O` [Homovanillic Acid], the Kd was > 1000 µM.
`NCCc1ccc(O)c(O)c1` [Dopamine] showed a Kd of 200 µM.
With `N[C@@H](Cc1ccc(O)cc1)C(=O)O` [Tyrosine] the Kd was 250 µM.
With `CC(C)NCC(O)c1ccc(O)c(O)c1` (stereo not shown) [Isoproterenol] the Kd was 13 µM.
With `NCC(O)c1ccc(O)cc1` (stereo not shown) [Octopamine] the Kd was > 1000 µM.

Biological target: not listed separately
Test: UV spectroscopy binding between compounds: binding to amphetamine
Details: read-out: Kd @ 200 nm, binding to Amph, high affinity binding; double curve, first value
`COc1cc(CC(=O)O)ccc1O` [Homovanillic Acid] showed a Kd of 1.5 µM.

Same assay, conditions: read-out: Kd @ 200 nm, binding to Amph, low affinity binding; double curve, second value
`COc1cc(CC(=O)O)ccc1O` [Homovanillic Acid] showed a Kd of 90 µM.

Same assay, conditions: read-out: Kd @ 200 nm, binding to Amph; UV spectroscopy, pH 7.4 sodium phosphate buffer; single binding constant
For `NC[C@H](O)c1ccc(O)c(O)c1` [Norepinephrine HCl], the Kd was 80 µM.
With `COc1ccc2[nH]cc(CCNC(C)=O)c2c1` [Melatonin] the Kd was 70 µM.
`NCCc1ccc(O)c(O)c1` [Dopamine] showed a Kd of 90 µM.
For `N[C@@H](Cc1ccc(O)cc1)C(=O)O` [Tyrosine], the Kd was 53 µM.
Compound `CC(C)NCC(O)c1ccc(O)c(O)c1` (stereo not shown) [Isoproterenol] has a Kd of 0.1 µM.
`NCC(O)c1ccc(O)cc1` (stereo not shown) [Octopamine] gave a Kd of 100 µM.

Biological target: not listed separately
Test: UV spectroscopy binding between compounds: binding to glucose
Details: read-out: Kd @ 200 nm, binding to Glucose, pH 7.4 sodium phosphate buffer
For `NC[C@H](O)c1ccc(O)c(O)c1` [Norepinephrine HCl], the Kd was > 1 mM.
In the case of `COc1ccc2[nH]cc(CCNC(C)=O)c2c1` [Melatonin], the Kd is reported as > 1 mM.
In the case of `COc1cc(CC(=O)O)ccc1O` [Homovanillic Acid], the Kd is reported as > 1 mM.
With `NCCc1ccc(O)c(O)c1` [Dopamine] the Kd was > 1 mM.
For `N[C@@H](Cc1ccc(O)cc1)C(=O)O` [Tyrosine], the Kd was > 1 mM.
In the case of `CC(C)NCC(O)c1ccc(O)c(O)c1` (stereo not shown) [Isoproterenol], the Kd is reported as > 1 mM.
For `NCC(O)c1ccc(O)cc1` (stereo not shown) [Octopamine], the Kd was > 1 mM.

Biological target: MuOPR 121–131 (Homo sapiens, UniProt P35372)
Test: not given
Details: not given
With `NCCc1ccc(O)c(O)c1` [Dopamine] the “binding to transmembrane peptide Mu 121” value was “no measurable binding”.

Biological target: not listed separately
Test: UV spectroscopy binding between compounds: binding to riboflavin
Details: pH 7.4 sodium phosphate buffer, read-out: Kd @ 200 nm, binding to Ribo
In the case of `NC[C@H](O)c1ccc(O)c(O)c1` [Norepinephrine HCl], the Kd is reported as > 1000 µM.
In the case of `COc1cc(CC(=O)O)ccc1O` [Homovanillic Acid], the Kd is reported as 70 µM.
For `NCCc1ccc(O)c(O)c1` [Dopamine], the Kd was > 1000 µM.
With `N[C@@H](Cc1ccc(O)cc1)C(=O)O` [Tyrosine] the Kd was > 1000 µM.
In the case of `CC(C)NCC(O)c1ccc(O)c(O)c1` (stereo not shown) [Isoproterenol], the Kd is reported as > 1000 µM.
`NCC(O)c1ccc(O)cc1` (stereo not shown) [Octopamine] showed a Kd of 30 µM.

Biological target: not listed separately
Test: UV spectroscopy binding between compounds: binding to morphine sulfate
Details: read-out: Kd @ 200 nm, binding to Morph; UV spectroscopy, pH 7.4 sodium phosphate buffer; single binding constant
With `NC[C@H](O)c1ccc(O)c(O)c1` [Norepinephrine HCl] the Kd was 0.4 µM.
`COc1ccc2[nH]cc(CCNC(C)=O)c2c1` [Melatonin] showed a Kd of 300 µM.
For `COc1cc(CC(=O)O)ccc1O` [Homovanillic Acid], the Kd was > 1000 µM.
`NCCc1ccc(O)c(O)c1` [Dopamine] gave a Kd of 0.6 µM.
With `N[C@@H](Cc1ccc(O)cc1)C(=O)O` [Tyrosine] the Kd was > 1000 µM.
`CC(C)NCC(O)c1ccc(O)c(O)c1` (stereo not shown) [Isoproterenol] showed a Kd of 0.1 µM.
`NCC(O)c1ccc(O)cc1` (stereo not shown) [Octopamine] gave a Kd of 3.2 µM.
